This is an account of results in paper PMC8658824, “ThermoSlope: A Software for Determining Thermodynamic Parameters from Single Steady-State Experiments” (Molecules, 2021).

In data set [1] the target is T1, Pig porcine α-amylase (PPA) (Sus scrofa, UniProt P00690).
T1 construct: gene AMY2; commercial native enzyme (Sigma-Aldrich A4268)
T1 sequence (P00690 16-511): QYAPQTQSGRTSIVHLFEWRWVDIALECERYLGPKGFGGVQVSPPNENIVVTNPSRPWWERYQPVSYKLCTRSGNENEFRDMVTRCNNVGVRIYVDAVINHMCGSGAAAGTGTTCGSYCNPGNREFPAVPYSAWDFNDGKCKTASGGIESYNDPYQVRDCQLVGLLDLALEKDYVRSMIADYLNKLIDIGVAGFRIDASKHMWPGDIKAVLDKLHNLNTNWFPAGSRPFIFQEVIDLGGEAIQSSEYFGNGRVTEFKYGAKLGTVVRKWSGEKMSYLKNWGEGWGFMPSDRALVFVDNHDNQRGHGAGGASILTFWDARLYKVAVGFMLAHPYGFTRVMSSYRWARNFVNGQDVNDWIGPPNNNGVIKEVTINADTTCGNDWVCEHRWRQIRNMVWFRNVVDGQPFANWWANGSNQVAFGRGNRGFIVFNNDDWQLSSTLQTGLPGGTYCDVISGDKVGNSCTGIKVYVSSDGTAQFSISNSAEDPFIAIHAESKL
As to the kind of experiment: colourimetric, […] nm, temperature gradient (ThermoSlope). Type of data set: biochemical. The note with it: phosphate buffered saline; 0.45 nM enzyme; 283-363 K, 1 K/min.

The target in data set [2] is T2, Bacillus licheniformis α-amylase (BLA) (Bacillus licheniformis, UniProt P06278).
T2 construct: gene amyS; commercial enzyme (Sigma-Aldrich A3403)
The description is as above. The note with it: phosphate buffered saline; 3.8 µM enzyme; 303-363 K, 2 K/min. The format is biochemical.

In data set [3] the target is T3, Pseudoalteromonas haloplanktis α-amylase (AHA) (Pseudoalteromonas haloplanktis, UniProt P29957).
T3 construct: gene amy; recombinant, E. coli, same protocol as pLipA (IMAC, then HiTrap SP)
T3 sequence (P29957 25-477): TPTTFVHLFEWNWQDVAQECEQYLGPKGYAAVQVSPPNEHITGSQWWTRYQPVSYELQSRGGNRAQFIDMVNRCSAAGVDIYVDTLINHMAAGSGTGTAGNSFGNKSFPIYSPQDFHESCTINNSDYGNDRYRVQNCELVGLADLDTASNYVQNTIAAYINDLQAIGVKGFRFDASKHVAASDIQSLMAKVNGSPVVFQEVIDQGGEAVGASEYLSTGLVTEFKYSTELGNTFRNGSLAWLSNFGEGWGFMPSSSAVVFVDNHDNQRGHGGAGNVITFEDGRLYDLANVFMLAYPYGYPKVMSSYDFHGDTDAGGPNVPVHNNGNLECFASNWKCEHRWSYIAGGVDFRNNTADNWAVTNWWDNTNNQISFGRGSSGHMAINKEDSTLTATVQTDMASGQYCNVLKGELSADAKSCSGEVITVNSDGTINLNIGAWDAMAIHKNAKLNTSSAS
The description is as above. The note with it: phosphate buffered saline; 60 nM enzyme; 283-306 K, 1 K/min. The format is biochemical.

Substrate in data set [4]: CCCC(=O)Oc1ccc([N+](=O)[O-])cc1
As to the kind of experiment: purified protein. The format is biochemical, Bacillus pumilus. The note with it: 298 K, 50 mM potassium phosphate pH 7.2, 5% acetonitrile, 1 nM enzyme, stepwise approach, 25.0 °C.

T2 sequence (P06278 30-512): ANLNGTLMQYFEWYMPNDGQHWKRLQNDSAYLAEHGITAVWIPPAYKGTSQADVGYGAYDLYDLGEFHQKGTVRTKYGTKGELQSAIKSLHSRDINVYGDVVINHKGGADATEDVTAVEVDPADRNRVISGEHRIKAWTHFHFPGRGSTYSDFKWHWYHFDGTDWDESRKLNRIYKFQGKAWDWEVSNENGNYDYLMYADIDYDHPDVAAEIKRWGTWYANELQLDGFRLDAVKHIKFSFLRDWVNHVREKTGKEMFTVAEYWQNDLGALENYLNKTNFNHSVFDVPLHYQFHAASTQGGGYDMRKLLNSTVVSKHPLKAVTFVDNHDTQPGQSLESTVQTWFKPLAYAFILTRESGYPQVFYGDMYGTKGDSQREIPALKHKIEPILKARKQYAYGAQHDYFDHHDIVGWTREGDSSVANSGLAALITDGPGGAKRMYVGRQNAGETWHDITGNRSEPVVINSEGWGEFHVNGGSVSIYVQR

Consider `O=[N+]([O-])c1ccc(O[C@H]2O[C@H](CO)[C@@H](O[C@H]3O[C@H](CO)[C@@H](O[C@H]4O[C@H](CO)[C@@H](O)[C@H](O)[C@H]4O)[C@H](O)[C@H]3O)[C@H](O)[C@H]2O)c(Cl)c1` [2-Chloro-4-nitrophenyl-α-D-maltotrioside], for which the “colourimetric, 405 nm, temperature gradient (ThermoSlope)” value in data set [1], in data set [2] and in data set [3] was “α-amylases were completed in a similar fashion using the ThermoSlope-approach with the chromogenic substrate” in each case.

B1: pLipA (Bacillus pumilus LipA; Lipase L5) (Bacillus pumilus) (protein)
chain: AEHNPVVMVHGMGGASYNFASIKSYLVTQGWDRNQLFAIDFIDKTGNNRNNGPRLSRFVKDVLGKTGAKKVDIVAHSMGGANTLYYIKNLDGGDKIENVVTLGGANGLVSLRALPGTDPNQKILYTSVYSSADMIVVNSLSRLIGARNVLIHGVGHISLLASSQVKGYIKEGLNGGGQNTN
notes: residues 35-215, codon-optimised synthetic gene in pET-22b(+) NdeI/XhoI, His-tag purified (tag removal not mentioned), E. coli NiCo21(DE3)
Usually Km stands for the concentration of substrate that gives half-maximal velocity. For orientation: kcat means the maximal rate divided by the concentration of active sites. Take B1: in data set [4], the Km worked out at 500 ± 100 µM and the kcat stood at 310 ± 20 s⁻¹.
